Reference: BindingDB's records for PubMed 8100350 (University of Pennsylvania, 1993)
Where a SMILES comes first, the peptide text is derived from it. Bridges are numbered along the chain shown (N, C = ends). [ ]: non-standard residue; d: D form. The star is where a group is joined. ξ: configuration not given here. Phe(4-NO2) = N[C@@H](Cc1ccc([N+](=O)[O-])cc1)C(=O)O; NH(1-naphthylmethyl) = c1ccc2c(CN*)cccc2c1; Phe(4-Cl) = N[C@@H](Cc1ccc(Cl)cc1)C(=O)O; 2Nal = N[C@@H](Cc1ccc2ccccc2c1)C(=O)O; d1Nal = N[C@H](Cc1cccc2ccccc12)C(=O)O; d2Nal = N[C@H](Cc1ccc2ccccc2c1)C(=O)O; dThr(3ξ) = CC(O)[C@@H](N)C(=O)O; Thr(3ξ) = CC(O)[C@H](N)C(=O)O; ξF = NC(Cc1ccccc1)C(=O)O; Abu = CC[C@H](N)C(=O)O; X2 = CC(O)[C@H](CO)N*; Ahp = NCCCCCCC(=O)O; ξC = NC(CS)C(=O)O

How the values were obtained:
[1] = target: Somatostatin receptor type 2 (Mus musculus, UniProt P30875)
[2] = target: Somatostatin receptor type 1 (Homo sapiens, UniProt P30872)
[3] = target: Somatostatin receptor type 3 (Mus musculus, UniProt P30935)
Chain of Somatostatin receptor type 3 (P30935 whole entry): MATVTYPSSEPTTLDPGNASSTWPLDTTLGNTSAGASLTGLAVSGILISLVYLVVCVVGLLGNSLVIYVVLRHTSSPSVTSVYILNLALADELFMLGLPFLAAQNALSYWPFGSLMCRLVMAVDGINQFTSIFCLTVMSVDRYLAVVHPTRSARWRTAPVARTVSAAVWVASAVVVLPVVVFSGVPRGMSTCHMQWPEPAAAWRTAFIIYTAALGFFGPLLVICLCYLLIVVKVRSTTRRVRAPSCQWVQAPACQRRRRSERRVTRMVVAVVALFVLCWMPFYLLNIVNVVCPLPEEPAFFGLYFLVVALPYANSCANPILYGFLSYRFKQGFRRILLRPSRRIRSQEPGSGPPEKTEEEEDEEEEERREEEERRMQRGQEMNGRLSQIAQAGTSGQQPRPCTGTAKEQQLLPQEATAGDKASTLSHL

Chain of Somatostatin receptor type 1 (P30872 whole entry): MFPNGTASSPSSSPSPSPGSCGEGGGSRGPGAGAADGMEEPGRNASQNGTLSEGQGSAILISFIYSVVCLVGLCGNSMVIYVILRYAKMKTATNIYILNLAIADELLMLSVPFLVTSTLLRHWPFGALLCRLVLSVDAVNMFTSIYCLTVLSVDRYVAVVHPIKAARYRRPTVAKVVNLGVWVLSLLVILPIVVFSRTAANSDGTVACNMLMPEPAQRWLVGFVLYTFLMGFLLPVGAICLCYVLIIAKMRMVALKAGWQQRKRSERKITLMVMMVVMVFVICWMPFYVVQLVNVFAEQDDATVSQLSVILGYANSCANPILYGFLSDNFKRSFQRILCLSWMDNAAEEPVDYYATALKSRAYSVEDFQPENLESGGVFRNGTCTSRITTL
Chain of Somatostatin receptor type 2 (P30875 whole entry): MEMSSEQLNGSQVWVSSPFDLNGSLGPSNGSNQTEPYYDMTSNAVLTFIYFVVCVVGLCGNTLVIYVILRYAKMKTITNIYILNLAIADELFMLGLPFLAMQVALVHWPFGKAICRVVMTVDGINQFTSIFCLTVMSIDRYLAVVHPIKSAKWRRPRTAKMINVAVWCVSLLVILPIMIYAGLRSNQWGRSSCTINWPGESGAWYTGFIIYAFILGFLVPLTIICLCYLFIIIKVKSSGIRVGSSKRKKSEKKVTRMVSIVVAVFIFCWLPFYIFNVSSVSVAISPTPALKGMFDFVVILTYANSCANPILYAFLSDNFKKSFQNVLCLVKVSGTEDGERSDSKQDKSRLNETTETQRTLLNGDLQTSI

SMILES	Ki [1]	Ki [2]	Ki [3]
CC(C)[C@@H]1NC(=O)[C@H](CCCCN)NC(=O)[C@@H](Cc2c[nH]c3ccccc23)NC(=O)[C@H](Cc2ccc(O)cc2)NC(=O)[C@@H](C)N(C)C(=O)[C@H](Cc2ccccc2)NC1=O	> 10000 nM	419 nM	4.7 nM
CC(O)[C@H](CO)NC(=O)[C@@H]1CSSCC(NC(=O)C(N)Cc2ccccc2)C(=O)N[C@H](Cc2ccccc2)C(=O)N[C@H](Cc2c[nH]c3ccccc23)C(=O)N[C@H](CCCCN)C(=O)N[C@H](C(C)O)C(=O)N1 (stereo partly drawn) (H-[ξF][ξC][dF][dW][dK][dThr(3ξ)]C-X2; disulfide 2-7)	2.4 nM		3 nM
C[C@@H](O)[C@@H]1NC(=O)[C@H](CCCCN)NC(=O)[C@@H](Cc2c[nH]c3ccccc23)NC(=O)[C@H](Cc2ccccc2)NC(=O)[C@@H]2CCCN2C(=O)[C@H](Cc2ccccc2)NC1=O (cyclo(PF[dW]KTF))	8.6 nM	1000 nM	108 nM
CC(C)[C@@H]1NC(=O)[C@H](CCCCN)NC(=O)[C@@H](Cc2c[nH]c3ccccc23)NC(=O)[C@H](Cc2ccc(O)cc2)NC(=O)[C@@H](NC(=O)[C@H](N)Cc2ccc3ccccc3c2)CSSC[C@@H](C(=O)N[C@H](C(N)=O)[C@@H](C)O)NC1=O [3-(2-Naphtyl)-D-Ala-L-Cys(1)-L-Tyr-D-Trp-L-Lys-L-Val-L-Cys(1)-L-Thr-NH2]	1.6 nM	789 nM	5.6 nM
CC(C)[C@H](NC(=O)[C@H](CCCCN)NC(=O)[C@@H](Cc1c[nH]c2ccccc12)NC(=O)[C@H](Cc1ccc(O)cc1)NC(=O)[C@H](Cc1ccc(Cl)cc1)NC(=O)[C@H](N)Cc1ccccc1)C(=O)N[C@@H](Cc1ccccc1)C(=O)N[C@H](C(N)=O)[C@@H](C)O [BIM 23057] (H-[dF][Phe(4-Cl)]Y[dW]KVFT-NH2)	2.4 nM	1000 nM	4.8 nM
CC(O)C1NC(=O)C(CCCCN)NC(=O)C(Cc2c[nH]c3ccccc23)NC(=O)C(Cc2ccc(O)cc2)NC(=O)C(NC(=O)C(N)Cc2ccccc2)CSSCC(C(=O)NCc2cccc3ccccc23)NC1=O (stereo not drawn) [BIM 23060] (H-FCYWKTC-{NH(1-naphthylmethyl)}; disulfide 2-7; configuration not given here)	0.01 nM	1000 nM	17.4 nM
CC[C@H](NC(=O)[C@@H](N)Cc1ccc(Cl)cc1)C(=O)N[C@@H](Cc1ccc(O)cc1)C(=O)N[C@H](Cc1c[nH]c2ccccc12)C(=O)N[C@@H](CCCCN)C(=O)N[C@H](C(=O)N[C@@H](C)C(=O)N[C@H](Cc1ccccc1)C(N)=O)C(C)C [BIM 23067] (H-[Phe(4-Cl)][Abu]Y[dW]KVA[dF]-NH2)	135 nM		123 nM
C[C@H](N)C(=O)NCC(=O)N[C@H]1CSSC[C@@H](C(=O)O)NC(=O)[C@H](CO)NC(=O)[C@H]([C@@H](C)O)NC(=O)[C@H](Cc2ccccc2)NC(=O)[C@H]([C@@H](C)O)NC(=O)[C@H](CCCCN)NC(=O)[C@@H](Cc2c[nH]c3ccccc23)NC(=O)[C@H](Cc2ccccc2)NC(=O)[C@H](Cc2ccccc2)NC(=O)[C@H](CC(N)=O)NC(=O)[C@H](CCCCN)NC1=O [SRIF-D-Trp8]	0.005 nM		

Now from value to compound:

Ki [1]	Ki [2]	Ki [3]	SMILES
83 nM	1000 nM	0.08 nM	C[C@@H](O)[C@@H]1NC(=O)[C@H](CCCCN)NC(=O)[C@@H](Cc2c[nH]c3ccccc23)NC(=O)[C@H](Cc2ccccc2)NC(=O)[C@@H]2CSSCC(NC1=O)C(=O)NCCCCCCC(=O)N2 [(1R,4S,7S,10R,13S,16R)-4-[(R)-1-Hydroxyethyl]-7-(4-aminobutyl)-10-(1H-indole-3-ylmethyl)-13-benzyl-28,29-dithia-2,5,8,11,14,17,25-heptaazabicyclo[14.10.4]triacontane-3,6,9,12,15,18,26-heptone] (cyclo([Ahp]CF[dW]KT[ξC]); disulfide 2-7)
0.002 nM	1000 nM	65 nM	CC1NC(=O)C(CCCCN)NC(=O)C(Cc2c[nH]c3ccccc23)NC(=O)C(Cc2ccc(O)cc2)NC(=O)C(NC(=O)C(N)Cc2ccccc2)CSSCC(C(=O)NCc2cccc3ccccc23)NC1=O (stereo not drawn) [BIM 23034] (H-FCYWKAC-{NH(1-naphthylmethyl)}; disulfide 2-7; configuration not given here)
4.2 nM	1000 nM	207 nM	CC(C)[C@@H]1NC(=O)[C@H](CCCCN)NC(=O)[C@@H](Cc2c[nH]c3ccccc23)NC(=O)[C@H](Cc2ccc(O)cc2)NC(=O)[C@@H](NC(=O)[C@H](N)Cc2ccc3ccccc3c2)CSSC[C@@H](C(=O)N[C@@H](Cc2ccc3ccccc3c2)C(N)=O)NC1=O [BIM 23042] (H-[d2Nal]CY[dW]KVC[2Nal]-NH2; disulfide 2-7)
836 nM	1000 nM	72 nM	CC(O)[C@H](NC(=O)[C@H](CCCCN)NC(=O)[C@@H](Cc1c[nH]c2ccccc12)NC(=O)[C@H](Cc1ccccc1)NC(=O)[C@@H](C)NC(=O)[C@@H](N)Cc1ccccc1)C(=O)N[C@@H](C)C(=O)N[C@H](C(N)=O)[C@@H](C)O (stereo partly drawn) [BIM 23051] (H-F[dA]F[dW]K[Thr(3ξ)]AT-NH2)
> 10000 nM	1000 nM	0.02 nM	CC(C)[C@H](NC(=O)[C@H](CCCCN)NC(=O)[C@@H](Cc1c[nH]c2ccccc12)NC(=O)[C@H](Cc1ccc(O)cc1)NC(=O)[C@H](Cc1ccccc1)NC(=O)[C@H](N)Cc1ccccc1)C(=O)N[C@@H](Cc1ccccc1)C(=O)N[C@H](Cc1cccc2ccccc12)C(N)=O [BIM 23056] (H-[dF]FY[dW]KVF[d1Nal]-NH2)
248 nM	1000 nM	81 nM	CC(C)[C@H](NC(=O)[C@H](CCCCN)NC(=O)[C@@H](Cc1c[nH]c2ccccc12)NC(=O)[C@H](Cc1ccc(O)cc1)NC(=O)[C@H](Cc1ccc(Cl)cc1)NC(=O)[C@@H](N)Cc1ccccc1)C(=O)N[C@@H](Cc1ccccc1)C(=O)N[C@@H](Cc1ccc2ccccc2c1)C(N)=O [BIM 23063] (H-F[Phe(4-Cl)]Y[dW]KVF[2Nal]-NH2)
948 nM	1000 nM	34 nM	CC(C)[C@H](NC(=O)[C@H](CCCCN)NC(=O)[C@@H](Cc1c[nH]c2ccccc12)NC(=O)[C@H](Cc1ccc(O)cc1)NC(=O)[C@H](Cc1ccc(Cl)cc1)NC(=O)[C@@H](N)Cc1ccccc1)C(=O)N[C@@H](Cc1ccccc1)C(=O)N[C@H](C)C(N)=O [BIM 23064] (H-F[Phe(4-Cl)]Y[dW]KVF[dA]-NH2)
3.1 nM	1000 nM	1.1 nM	CC(C)[C@H](NC(=O)[C@H](CCCCN)NC(=O)[C@@H](Cc1c[nH]c2ccccc12)NC(=O)[C@H](Cc1ccc(O)cc1)NC(=O)[C@H](Cc1ccc([N+](=O)[O-])cc1)NC(=O)[C@H](N)Cc1ccccc1)C(=O)N[C@@H](Cc1ccccc1)C(=O)N[C@H](C(N)=O)[C@@H](C)O [BIM 23066] (H-[dF][Phe(4-NO2)]Y[dW]KVFT-NH2)
0.18 nM		12 nM	CC(C)[C@@H]1NC(=O)[C@H](CCCCN)NC(=O)[C@@H](Cc2c[nH]c3ccccc23)NC(=O)[C@H](Cc2ccc(O)cc2)NC(=O)[C@H](C)N(C)C(=O)[C@H](Cc2ccccc2)NC1=O [CAS_3086456]
0.005 nM		2.1 nM	C[C@@H](O)[C@@H]1NC(=O)[C@H](Cc2ccccc2)NC(=O)[C@H]([C@@H](C)O)NC(=O)[C@H](CCCCN)NC(=O)[C@@H](Cc2c[nH]c3ccccc23)NC(=O)[C@H](Cc2ccccc2)NC(=O)[C@H](Cc2ccc(Cl)cc2)NC(=O)[C@H](CC(N)=O)NC(=O)[C@H](CCCCN)NC(=O)[C@@H](N)CSSC[C@@H](C(=O)O)NC(=O)[C@H](CO)NC1=O [EC5-21] (H-CKN[Phe(4-Cl)]F[dW]KTFTSC-OH; disulfide 1-12)
